{"source": "patent US20100297675A1", "about": "“SUBSTRATE AND METHOD FOR CULTURING BREAST CELLS” (priority 2008, published 2010)", "key": {"[1]": {"test_system": "MCF-7 malignant breast cells", "assay": "MCF-7 malignant cells cultured in porous PDMS substrate, treated with inhibitor, confocal fluorescence imaging", "type": "cell-based", "conditions": "MCF-7 in porous PDMS, 4 μM on alternate days for 15 days, F-actin/DAPI stain", "excerpt": "Porous polydimethylsiloxane (PDMS) substrates were generated by mixing a PDMS pre-polymer and a curing agent using the Sylgard 182 kit available from Dow Corning in a ratio of 10 to 1. The mixture was closely packed with sugar crystals of size ranging from 212-250 micrometers, which was then filled in a mold and cured at 100 degrees for one hour. The sugar in the cured polymer was washed out in an ultrasonic bath, forming porous PDMS substrates. The resulting porous PDMS was released from the mold and assembled into multi-well plate for cell culture. Malignant breast cells MCF-7 were seeded in wells having the porous PDMS substrates described in Example 1. 10,000 cells were seeded and cultured in EMEM cell culture medium with 10% Fetal Bovine Serum, 5% pen/strep, and 10 μg/ml of insulin. The medium was changed on alternate days. Following two weeks of culture, the cells were stained with Rhodamine phalloidin (F-actin staining) and DAPI nuclei counter stain and imaged with confocal fluorescence microscope as shown in FIG. 9. […] Differences in cellular morphology often contribute to differences in cellular function. […]"}, "[2]": {"test_system": "MCF-7 malignant breast cells", "assay": "MCF-7 malignant cells cultured on 2D TCT culture surface, treated with inhibitor, confocal fluorescence imaging", "type": "cell-based", "conditions": "MCF-7 on TCT 2D surface; 4 μM on alternate days for 15 days; E-cadherin/DAPI stain; FIGS. 11A-C", "experimental": "Differences in cellular morphology often contribute to differences in cellular function. To understand the difference of cellular functions between breast cells cultured in a porous substrate and on a 2D culture surface, 10,000 MCF-7 malignant cell were seeded and cultured in porous PDMS (as described in Example 1) and a TCT culture surface (tissue culture treated polystyrene, “TCT”, Coming Inc) under the same conditions. The cells were treated with 4 μM of PD98059 (MAPK inhibitor) and 4 μM of LY294002 (PI3K inhibitor) on alternate days for 15 days. […] In FIGS. 11A-C, the cells were stained for E-cadherin and counterstained with a DAPI nuclei stain. In FIG. 11A, untreated cells are shown at 14 days of culture. In FIG. 11B, cells treated with PD98059 are shown at 14 days of culture. In FIG. 11C, cells treated with LY294002 are shown at 14 days of culture. The green (E-cadherin) and blue (nuclei) stains cannot be seen in the black and white reproductions presented herein."}, "breast cancer cells": {"test_system": "breast cancer cells", "conditions": "Matrigel 3D culture system; reported; cited from earlier work"}}}
{"smiles": "COc1cccc(-c2cc(=O)c3ccccc3o2)c1N", "note": "[PD98059]", "values": [{"measurement": "colony size", "setting": "[1]; FIGS. 12A-C", "value": "significantly reduced the colony size"}, {"measurement": "reversion of malignant phenotype (mass structure to acini structure)", "setting": "[1]; FIGS. 13A-C", "value": "reversed malignant phenotype from mass structure to normal acini structure"}, {"measurement": "noticeable difference for the cells cultured on TCT surface (reversion of malignant phenotype or other change)", "setting": "[2]", "value": "failed to induce noticeable difference"}, {"measurement": "reversal of malignant behaviors of breast cancer cells", "setting": "breast cancer cells", "value": "reverse malignant behaviors of breast cancer cells to certain degrees"}]}
